Measurements taken from ChEMBL document CHEMBL6182861, “Structural modification of heptamethine indocyanine dyes with improved aqueous solubility and stability for photothermal therapy” (Eur J Med Chem, 2025).
Calls of active or inactive are those of the source. The calls are words filed in the database; no cut-off is given here.

Experiments:
[1] = Photothermal property of compound assessed as increase in photothermal conversion efficiency at 20 uM exposed to laser irradiation of 808 nm for 2 mins; type: functional
[2] = Photothermal stability of compound at 60 degreeC at 20 uM exposed to laser irradiation of 808 nm for 2.5 mins; type: physicochemical
[3] = Photosensitizing property of compound assessed as generation of singlet-state oxygen by ESR spectrometry; type: functional
[4] = Photosensitizing property of compound assessed as generation of singlet-state oxygen at 10 uM exposed to laser irradiation of 808 nm for 2 mins by SOSG probe based analysis; type: functional
[5] = Drug uptake in mouse 4T1 cells assessed as increase in fluorescence intensity at 3.12 uM incubated for 4 hrs by flow cytometry; type: ADME, cell-based; conditions: 4t1, 4 h
[6] = Drug uptake in human HepG2 cells assessed as increase in fluorescence intensity at 3.12 uM incubated for 4 hrs by flow cytometry; type: ADME, cell-based; conditions: hepg2, 4 h
[7] = Drug uptake in mouse 4T1 cells assessed as increase in fluorescence intensity at 3.12 uM incubated for 4 hrs by CLSM; type: ADME, cell-based; conditions: 4t1, 4 h
[8] = Drug uptake in human HepG2 cells assessed as increase in fluorescence intensity at 3.12 uM incubated for 4 hrs by CLSM; type: ADME, cell-based; conditions: hepg2, 4 h
[9] = Cytotoxicity against mouse NIH3T3 cells assessed as survival rate at 25 uM relative to control; type: toxicity, cell-based; conditions: read-out: Survival
4T1 [10] = experiment: Induction of ROS generation in mouse 4T1 cells at 3.12 uM incubated for 4 hrs followed by exposure to laser irradiation of 808 nm for 2 mins by flow cytometry; type: functional, cell-based; conditions: time 242.0 min
4T1 [11] = experiment: Induction of ROS generation in mouse 4T1 cells at 3.12 uM incubated for 4 hrs followed by exposure to laser irradiation of 808 nm for 2 mins by DCFH-DA probe based CLSM; type: functional, cell-based; conditions: time 242.0 min
HepG2 [12] = experiment: Induction of ROS generation in human HepG2 cells at 3.12 uM incubated for 4 hrs followed by exposure to laser irradiation of 808 nm for 2 mins by flow cytometry; type: functional, cell-based; conditions: time 242.0 min
HepG2 [13] = experiment: Induction of ROS generation in human HepG2 cells at 3.12 uM incubated for 4 hrs followed by exposure to laser irradiation of 808 nm for 2 mins by DCFH-DA probe based CLSM; type: functional, cell-based; conditions: time 242.0 min
Mitochondrial membrane [14] = experiment: Inhibition of mitochondrial membrane potential in mouse 4T1 cells at 3.12 uM preincubated for 4 hrs followed by exposure to laser irradiation of 808 nm for 2 mins and subsequent incubation for 20 hrs by flow cytometry; type: cell membranes; conditions: time 1442.0 min
Mitochondrial membrane [15] = experiment: Inhibition of mitochondrial membrane potential in mouse 4T1 cells at 3.12 uM preincubated for 4 hrs followed by exposure to laser irradiation of 808 nm for 2 mins and subsequent incubation for 20 hrs by Rh123 probe based CLSM; type: cell membranes; conditions: time 1442.0 min
Mitochondrial membrane [16] = experiment: Inhibition of mitochondrial membrane potential in human HepG2 cells at 3.12 uM preincubated for 4 hrs followed by exposure to laser irradiation of 808 nm for 2 mins and subsequent incubation for 20 hrs by flow cytometry; type: cell membranes; conditions: time 1442.0 min
Mitochondrial membrane [17] = experiment: Inhibition of mitochondrial membrane potential in human HepG2 cells at 3.12 uM preincubated for 4 hrs followed by exposure to laser irradiation of 808 nm for 2 mins and subsequent incubation for 20 hrs by Rh123 probe based CLSM; type: cell membranes; conditions: time 1442.0 min
Mitochondrial membrane [18] = experiment: Inhibition of mitochondrial membrane potential in mouse 4T1 cells at 3.12 uM incubated for 24 hrs by flow cytometry; type: cell membranes
Mitochondrial membrane [19] = experiment: Inhibition of mitochondrial membrane potential in mouse 4T1 cells at 3.12 uM incubated for 24 hrs by Rh123 probe based CLSM; type: cell membranes
Mitochondrial membrane [20] = experiment: Inhibition of mitochondrial membrane potential in human HepG2 cells at 3.12 uM incubated for 24 hrs by flow cytometry; type: cell membranes
Mitochondrial membrane [21] = experiment: Inhibition of mitochondrial membrane potential in human HepG2 cells at 3.12 uM incubated for 24 hrs by Rh123 probe based CLSM; type: cell membranes
Mitochondrial membrane [22] = experiment: Inhibition of mitochondrial membrane potential in human HepG2 cells assessed as green fluorescence at 3.12 uM preincubated for 4 hrs followed by exposure to laser irradiation of 808 nm for 2 mins and subsequent incubation for 20 hrs by JC-1 dye based analysis; type: cell membranes; conditions: time 1442.0 min
4T1 [23] = experiment: Induction of apoptosis in mouse 4T1 cells at 3.12 uM incubated for 4 hrs followed by exposure to laser irradiation of 808 nm for 2 mins by Annexin V-FITC/PI staining based flow cytometry; type: functional, cell-based; conditions: time 242.0 min
HepG2 [24] = experiment: Induction of apoptosis in human HepG2 cells at 3.12 uM incubated for 4 hrs followed by exposure to laser irradiation of 808 nm for 2 mins by Annexin V-FITC/PI staining based flow cytometry; type: functional, cell-based; conditions: time 242.0 min
[25] = Drug accumulation in tumor of female BALB/c mouse bearing mouse 4T1 cells at 2.5 mg/kg, iv measured up to 12 hrs by fluorescence imaging analysis; type: ADME, organism-based, Neoplasm; conditions: in vivo
4T1 [26] = experiment: Antitumor activity against mouse 4T1 cells implanted in female BALB/c mouse assessed as decrease in tumor weight at 2.5 mg/kg, iv pretreated for 4 hrs followed by exposure to laser irradiation of 808 nm for 5 mins on every 2 days treated for 15 days; type: functional, organism-based; conditions: time 15.0 day
4T1 [27] = experiment: Antitumor activity against mouse 4T1 cells implanted in female BALB/c mouse assessed as loosely arranged cells at 2.5 mg/kg, iv pretreated for 4 hrs followed by exposure to laser irradiation of 808 nm for 5 mins on every 2 days treated for 15 days by H and E staining based analysis; type: functional, organism-based; conditions: time 15.0 day
[28] = Toxicity in female BALB/c mouse bearing mouse 4T1 cells assessed as damage in kidney at 2.5 mg/kg, iv pretreated for 4 hrs followed by exposure to laser irradiation of 808 nm for 5 mins on every 2 days treated for 15 days by H and E staining based analysis; type: organism-based; conditions: in vivo, 360 h, time 15 day
[29] = Toxicity in ICR mouse bearing mouse H22 cells assessed as damage in heart at 2.5 mg/kg, iv pretreated for 4 hrs followed by exposure to laser irradiation of 808 nm for 5 mins on every 2 days treated for 15 days by H and E staining based analysis; type: organism-based; conditions: in vivo, 360 h, time 15 day
[30] = Toxicity in ICR mouse bearing mouse H22 cells assessed as damage in kidney at 2.5 mg/kg, iv pretreated for 4 hrs followed by exposure to laser irradiation of 808 nm for 5 mins on every 2 days treated for 15 days by H and E staining based analysis; type: organism-based; conditions: in vivo, 360 h, time 15 day
4T1 [31] = experiment: Antitumor activity against mouse 4T1 cells implanted in female BALB/c mouse assessed as decrease in tumor volume at 1.8 mg/kg, iv treated for 4 hrs on every 2 days treated for 15 days; type: functional, organism-based; conditions: time 15.0 day
[32] = Toxicity in female BALB/c mouse bearing mouse 4T1 cells assessed as damage in liver at 1.8 mg/kg, iv pretreated for 4 hrs followed by exposure to laser irradiation of 808 nm for 5 mins on every 2 days treated for 15 days by H and E staining based analysis; type: organism-based; conditions: in vivo, 360 h, time 15 day
[33] = Toxicity in ICR mouse bearing mouse H22 cells assessed as damage in lung at 1.8 mg/kg, iv pretreated for 4 hrs followed by exposure to laser irradiation of 808 nm for 5 mins on every 2 days treated for 15 days by H and E staining based analysis; type: organism-based; conditions: in vivo, 360 h, time 15 day

## COCCOCCOCCN1/C(=C/C=C/C(=C/C=C/C2=[N+](CCOCCOCCOC)c3ccccc3C2(C)C)C(=O)OC)C(C)(C)c2ccccc21.[I-]
[1]
  Activity: Active; Highest Efficiency Observed Among Tested Compounds
[2]
  Stability: Stable
[3]
  Activity: Active
[4]
  Activity: Active
[5]
  Drug uptake: Active
[6]
  Drug uptake: Active
[7]
  Drug uptake: Active
[8]
  Drug uptake: Active
[9]
  viability at 25 µM: > 60%
4T1 [10]
  Activity: Active; Exhibited Only A Smaller Increase In Activity
4T1 [11]
  Activity: Active; Exhibited Only A Smaller Increase In Activity
HepG2 [12]
  Activity: Active; Exhibited Only A Smaller Increase In Activity
HepG2 [13]
  Activity: Active; Exhibited Only A Smaller Increase In Activity
Mitochondrial membrane [14]
  inhibition: Active; Significant Inhibition Was Observed
Mitochondrial membrane [15]
  inhibition: Active; Significant Inhibition Was Observed
Mitochondrial membrane [16]
  inhibition: Active; Significant Inhibition Was Observed
Mitochondrial membrane [17]
  inhibition: Active; Significant Inhibition Was Observed
Mitochondrial membrane [18]
  inhibition: Active; Certain Degree Of Inhibition Was Observed
Mitochondrial membrane [19]
  inhibition: Active; Certain Degree Of Inhibition Was Observed
Mitochondrial membrane [20]
  inhibition: Active; Certain Degree Of Inhibition Was Observed
Mitochondrial membrane [21]
  inhibition: Active; Certain Degree Of Inhibition Was Observed
Mitochondrial membrane [22]
  inhibition: Active
4T1 [23]
  Activity: Active
HepG2 [24]
  Activity: Active
[25]
  Drug uptake: Active
4T1 [26]
  Activity: Active
4T1 [27]
  Activity: Active
[28]
  Activity: Non-toxic
[29]
  Activity: Non-toxic
[30]
  Activity: Non-toxic

## COC(=O)C(=C\C=C\C1=[N+](C)c2ccccc2C1(C)C)/C=C/C=C1/N(C)c2ccccc2C1(C)C.[I-]
[1]
  Activity: Not active; Lowest Efficiency Observed Among Tested Compounds
[2]
  Stability: Unstable
[3]
  Activity: Active
[4]
  Activity: inactive
[5]
  Drug uptake: Active
[6]
  Drug uptake: Active
[7]
  Drug uptake: Active
[8]
  Drug uptake: Active
[9]
  viability at 25 µM: > 60%
4T1 [10]
  Activity: Active
4T1 [11]
  Activity: Active
HepG2 [12]
  Activity: Active
HepG2 [13]
  Activity: Active
Mitochondrial membrane [14]
  inhibition: Active; Significant Inhibition Was Observed
Mitochondrial membrane [15]
  inhibition: Active; Significant Inhibition Was Observed
Mitochondrial membrane [16]
  inhibition: Active; Significant Inhibition Was Observed
Mitochondrial membrane [17]
  inhibition: Active; Significant Inhibition Was Observed
Mitochondrial membrane [18]
  inhibition: Active; Certain Degree Of Inhibition Was Observed
Mitochondrial membrane [19]
  inhibition: Active; Certain Degree Of Inhibition Was Observed
Mitochondrial membrane [20]
  inhibition: Active; Certain Degree Of Inhibition Was Observed
Mitochondrial membrane [21]
  inhibition: Active; Certain Degree Of Inhibition Was Observed
4T1 [23]
  Activity: Active
HepG2 [24]
  Activity: Active
4T1 [31]
  Activity: inactive
[32]
  Activity: Non-toxic
[33]
  Activity: Non-toxic
